Like-named read-outs stand apart in the source and are kept apart here.

For test [1] the following is noted: cited from earlier work.
For test [2], the system named is animal model of hypervolemic tamponade.
In test [3] the test system is congestion heart failure (HF) model. The conditions noted are these: for diuresis / natriuresis: furosemide diuresis, No-HF; for filtration fraction: furosemide infusion.

With `NS(=O)(=O)c1cc(C(=O)O)c(NCc2ccco2)cc1Cl` [furosemide], the “increase in renal interstitial pressure” value in test [1] (furosemide administration, as reported) was roughly 7 mmHg. The “effect on GFR” value in test [1] (known effect of furosemide) is “can reduce GFR”. The “decrease in urine output” value in test [2] (tamponade (CVP approx. 20 mm Hg), continued presence of furosemide, compared to mild congestion state of saline loading) was −35%. In test [2] (tamponade, negative pressure (−30 mm Hg) in combination with furosemide, beyond the use of diuretics alone), the “increase in urine output” value is reported as “+67%”. Further, the diuresis is 11.8 ± 3.7 mL/min in test [3] (control kidney (no rNPT)) and 19.7 ± 4.5 mL/min in test [3] (rNPT kidney (−30 mmHg)). Moreover, the natriuresis in test [3] (control kidney (no rNPT)) amounted to 1.5 ± 0.5 mmol/min; in test [3] (rNPT kidney (−30 mmHg)) it was 2.4 ± 0.6 mmol/min. The filtration fraction in test [3] (during rNPT (similar effect between HF and no HF periods)) is reported as 55.6±24.8%; in test [3] (without rNPT), 49.0±20.8%.

The values are drawn from patent US20210370019A1, “Method of Treatment Using Negative Pressure Renal Therapy and Medicament(s)” (Strataca Systems Limited, priority 2020, published 2021).
